What was measured:
winter wheat = test: Field trial in winter wheat: impact on yield, greening and canopy coverage under pathogen-free conditions; format: in vivo, winter wheat variety "Dekan"; settings: 125 g a.i./ha; for Grain Yield (% of Control) / Grain Yield: sprayed threefold at BBCH 31, 39 and 69 as 100EC formulation; for Grain Yield (% of Control): control = 100EC blank formulation; for Grain Yield: harvest July 2017; for Greening (% of Control): measured visually at BBCH growth stage 65, untreated control plots = 100%; for Canopy Coverage: tractor-mounted RGB camera system, BBCH growth stage 37
Procedure: A field trial in winter wheat was conducted in the experimental station "Laacherhof" in Germany from autumn 2016 to summer 2017.
Seeds of the winter wheat variety "Dekan" were planted in October 2016. Fertilization, herbicide- and plant growth regulator applications were carried out according to the local agricultural practice. Additionally, a cover spray with the fungicidal composition "Pronto® Plus" was carried out at BBCH growth stage 51 in order to keep the field trial pathogen-free. The trial was conducted with 4 replicates and the replicates 2, 3 and 4 were randomized. The plot size was 8.8 m^2.
The compounds 2-[6-(4-chlorophenoxy)-2-(trifluoromethyl)-3-pyridyl]-1-(1,2,4-triazol-1-yl)propan-2-ol (I.01) and 2-[6-(4-bromophenoxy)-2-(trifluoromethyl)-3-pyridyl]-1-(1,2,4-triazol-1-yl)propan-2-ol (1.02) were sprayed threefold at BBCH growth stages 31, 39 and 69 with an use rate of 125 g a.i./ha (a.i. = active ingredient, i.e. the respective compound of formula (I)). Both compounds were applied as a 100EC formulation (100EC = emulsion concentrate comprising 100 g/L of the respective active ingredient).
The winter wheat was harvested in July 2017.
The greening effect was measured visually at BBCH growth stage 65. The greening of the untreated control plots corresponds to 100% and the plots of the other treatments were directly compared to the control plots (table 1).
The canopy coverage was measured by a tractor-mounted RGB camera system on May 11, 2017 at BBCH growth stage 37 (table 1). Table 1: Impact of different compounds on yield, greening and canopy coverage

Septoria tritici = Septoria tritici test / in vitro microtest (liquid medium, microtitre plates, optical density at 620 nm); format: cell-based; settings: for EC50 (Mean): mean over the 14 strains; for EC50: 5 days of incubation
Procedure: In an in-vitro microtest, several compounds were tested against different strains of Septoria tritici.
The microtest was performed in liquid medium with 50% malt medium using microtitre plates.
The active compounds are applied as technical active substances dissolved in methanol and 8 concentrations were prepared. The resulting concentration range was 0; 0.0032; 0.016; 0.08; 0.4; 2; 10; and 50 µg a.i. /ml. A mycelium suspension of different strains of Septoria tritici was used for inoculation. After 5 days of incubation in darkness under shaking (10 Hrz) the optical density in each cavity was determined photometrically at 620 nm. […] Table 3: Septoria tritici test /in vitro

[1] = tested on: leaf discs of grape plants; test: Leaf disc test: chlorophyll content (greening effect) by SPAD-502 chlorophyll meter; settings: 1 ppm; after 3 days at room temperature (21°C); 5 replicates
Procedure: According to this invention the chlorophyll content is measured by means of the commercially available hand-held chlorophyll meter SPAD-502 (Konica Minolta).
In a lab experiment, leaf discs of grape plants were put in petri dishes containing solutions of different compounds. 5 replicates were used for each treatment. Afterwards, the petri dishes were incubated for max. 7 days at room temperature (21°C). After 3 days, the chlorophyll content of the leaf discs was measured by using a commercially available hand-held chlorophyll meter (SPAD-502, Konica Minolta). Table 2: Impact of 2-[6-(4-bromophenoxy)-2-(trifluoromethyl)-3-pyridyl]-1-(1,2,4-triazol-1-yl)propan-2-ol (I.02) on the chlorophyll content (greening effect) in leaf discs

SMILES: CC(O)(Cn1cncn1)c1ccc(Oc2ccc(Cl)cc2)nc1C(F)(F)F (stereo not shown) [Compound 1.01, 2-[6-(4-chlorophenoxy)-2-(trifluoromethyl)-3-pyridyl]-1-(1,2,4-triazol-1-yl)propan-2-ol]
- Grain Yield (% of Control) (winter wheat): 108 % of Control
- Grain Yield (winter wheat): 74,6 dt/ha
- Greening (% of Control) (winter wheat): 108 % of Control
- Canopy Coverage (winter wheat): 58%
- EC50 (Mean) (Septoria tritici): 0,0203 ppm
- EC50 (Septoria tritici; strain 01/16): 0,1348 ppm
- EC50 (Septoria tritici; strain 02/16): 0,0248 ppm
- EC50 (Septoria tritici; strain 03/16): 0,0032 ppm
- EC50 (Septoria tritici; strain 04/16): 0,0355 ppm
- EC50 (Septoria tritici; strain 05/16): 0,0503 ppm
- EC50 (Septoria tritici; strain 06/16): 0,0039 ppm
- EC50 (Septoria tritici; strain 07/16): 0,0032 ppm
- EC50 (Septoria tritici; strain 08/16): 0,0641 ppm
- EC50 (Septoria tritici; strain 09/16): 0,1002 ppm
- EC50 (Septoria tritici; strain 11/16): 0,0034 ppm
- EC50 (Septoria tritici; strain 12/16): 0,0715 ppm
- EC50 (Septoria tritici; strain 13/16): 0,0055 ppm
- EC50 (Septoria tritici; strain 14/16): 0,0147 ppm
- EC50 (Septoria tritici; strain 15/16): 0,0663 ppm

SMILES: CC(O)(Cn1cncn1)c1ccc(Oc2ccc(Br)cc2)nc1C(F)(F)F (stereo not shown) [Compound 1.02, 2-[6-(4-bromophenoxy)-2-(trifluoromethyl)-3-pyridyl]-1-(1,2,4-triazol-1-yl)propan-2-ol]
- SPAD Reading [1]: 32
- Grain Yield (% of Control) (winter wheat): 112 % of Control
- Grain Yield (winter wheat): 77,8 dt/ha
- Greening (% of Control) (winter wheat): 137 % of Control
- Canopy Coverage (winter wheat): 58%
- EC50 (Mean) (Septoria tritici): 0,0133 ppm
- EC50 (Septoria tritici; strain 01/16): 0,0187 ppm
- EC50 (Septoria tritici; strain 02/16): 0,0108 ppm
- EC50 (Septoria tritici; strain 03/16): 0,0043 ppm
- EC50 (Septoria tritici; strain 04/16): 0,0433 ppm
- EC50 (Septoria tritici; strain 05/16): 0,0223 ppm
- EC50 (Septoria tritici; strain 06/16): 0,0033 ppm
- EC50 (Septoria tritici; strain 07/16): 0,0032 ppm
- EC50 (Septoria tritici; strain 08/16): 0,0629 ppm
- EC50 (Septoria tritici; strain 09/16): 0,0416 ppm
- EC50 (Septoria tritici; strain 11/16): 0,0038 ppm
- EC50 (Septoria tritici; strain 12/16): 0,0806 ppm
- EC50 (Septoria tritici; strain 13/16): 0,0169 ppm
- EC50 (Septoria tritici; strain 14/16): 0,0080 ppm
- EC50 (Septoria tritici; strain 15/16): 0,0059 ppm

SMILES: CC(C)(C)C(O)(CCc1ccc(Cl)cc1)Cn1cncn1 (stereo not shown) [Tebuconazole, reference compound]
- SPAD Reading [1]: 25
- EC50 (Mean) (Septoria tritici): 7,4138 ppm
- EC50 (Septoria tritici; strain 01/16): 8,1102 ppm
- EC50 (Septoria tritici; strain 02/16): 14,4303 ppm
- EC50 (Septoria tritici; strain 03/16): 13,2784 ppm
- EC50 (Septoria tritici; strain 04/16): 50,0000 ppm
- EC50 (Septoria tritici; strain 05/16): 8,5712 ppm
- EC50 (Septoria tritici; strain 06/16): 10,6222 ppm
- EC50 (Septoria tritici; strain 07/16): 5,4355 ppm
- EC50 (Septoria tritici; strain 08/16): 4,2639 ppm
- EC50 (Septoria tritici; strain 09/16): 27,1082 ppm
- EC50 (Septoria tritici; strain 11/16): 0,6823 ppm
- EC50 (Septoria tritici; strain 12/16): 2,1260 ppm
- EC50 (Septoria tritici; strain 13/16): 28,6583 ppm
- EC50 (Septoria tritici; strain 14/16): 3,4790 ppm
- EC50 (Septoria tritici; strain 15/16): 2,3577 ppm

Source: EP3391747A1, “USE OF PHENOXYPYRIDINYL-SUBSTITUTED (1H-1,2,4-TRIAZOL-1-YL)ALCOHOLS FOR ENHANCING CROP PERFORMANCE” (Bayer AG, priority 2018, dated 2018)
